Measured values from patent US20180028498A1, “A PHARMACEUTICAL COMPOSITION FOR THE PARENTERAL ADMINISTRATION OF MELATONIN, AND A PROCESS FOR ITS PREPARATION” (INDUSTRIA FARMACEUTICA GALENICA SENESE S.R.L., priority 2015, published 2018).

What was measured:
[1] = Solubility / maximum concentration of melatonin in solvent; assay type: physicochemical; settings: physiological saline solution, no excipients, co-solvents or diluents
Excerpt: There are moreover disclosed in the literature injectable formulations of melatonin, that are in general solutions of melatonin in ethanol or in propylene glycol, then diluted with water. As a matter of fact, melatonin is known to be a substance that dissolves in aqueous media with great difficulties.
The present pharmaceutical compositions in the form of an aqueous solution, thanks to the process of preparation of the invention described in detail in the following, may contain, dissolved in aqueous solution, amounts of melatonin that are relatively high and suitable for the dosages required in medical treatments; the concentration of melatonin in the present compositions is indeed comprised between 0.2 and 0.4 mg/ml, this latter being the maximum value of concentration obtained for the melatonin in the present aqueous compositions, in the absence of any excipients, co-solvents or diluents different from the physiological saline solution.
A pharmaceutical dissolver of suitable size was deaerated by insufflation of filtered nitrogen, then the dissolver was charged with water for injections at 85° C., to fill approximately 80% of the inner volume of the dissolver. After cooling water at 50° C., sodium chloride was added in such amount as to obtain a final concentration of 9mg/ml; the so obtained solution was deaerated by bubbling filtered nitrogen. […]

[2] = cited from earlier work
[3] = tested on: free radicals (pro-inflammatory cytokines); settings: ventilated infants with bronchopulmonary dysplasia; cited from earlier work
[4] = tested on: chronic lung disease; settings: infants; cited from earlier work
[5] = tested on: pain; settings: in combination with other drugs, endotracheal intubation in infants; cited from earlier work

## COc1ccc2[nH]cc(CCNC(C)=O)c2c1 [melatonin, N-acetyl-5-methoxytriptamine]
[1]
  maximum value of concentration obtained in aqueous composition: 0.4 mg/mL
[2]; ethanol
  solubility in ethanol: fairly good solubility
[2]; water
  solubility in water: close to zero
[3]
  reduction of production of free radicals (pro-inflammatory cytokines): effective in reducing the production of these molecules
[4]
  efficacy in chronic lung disease: same efficacy has been demonstrated
[5]
  efficacy as an analgesic: demonstrated the efficacy
